Where a name gives a salt, the structure may show the parent alone.
Each molecule was assayed against T1, CFTR channel in human colonic T84 cells (Homo sapiens, UniProt P13569) (assay: T84 assay (FLIPR membrane potential dye, forskolin/IBMX-stimulated CFTR)). Conditions: average of at least 2 runs unless annotated n = 1.
T1 construct: results in the phosphorylation and opening of CFTR anion channels; host or cells: human colonic T84 cells
Assay type: cell-based
Outline: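 T84 cells (25,000/well, grown overnight) were washed in HBSS with 10 mM Hepes, then loaded with FLIPR Red membrane potential dye for 45 min with or without compound. CFTR was stimulated with 10 μM forskolin plus 100 μM IBMX after a 10 s baseline. Depolarization was tracked as a fluorescence increase, read every second for 150 s.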

T1 sequence (P13569 whole entry): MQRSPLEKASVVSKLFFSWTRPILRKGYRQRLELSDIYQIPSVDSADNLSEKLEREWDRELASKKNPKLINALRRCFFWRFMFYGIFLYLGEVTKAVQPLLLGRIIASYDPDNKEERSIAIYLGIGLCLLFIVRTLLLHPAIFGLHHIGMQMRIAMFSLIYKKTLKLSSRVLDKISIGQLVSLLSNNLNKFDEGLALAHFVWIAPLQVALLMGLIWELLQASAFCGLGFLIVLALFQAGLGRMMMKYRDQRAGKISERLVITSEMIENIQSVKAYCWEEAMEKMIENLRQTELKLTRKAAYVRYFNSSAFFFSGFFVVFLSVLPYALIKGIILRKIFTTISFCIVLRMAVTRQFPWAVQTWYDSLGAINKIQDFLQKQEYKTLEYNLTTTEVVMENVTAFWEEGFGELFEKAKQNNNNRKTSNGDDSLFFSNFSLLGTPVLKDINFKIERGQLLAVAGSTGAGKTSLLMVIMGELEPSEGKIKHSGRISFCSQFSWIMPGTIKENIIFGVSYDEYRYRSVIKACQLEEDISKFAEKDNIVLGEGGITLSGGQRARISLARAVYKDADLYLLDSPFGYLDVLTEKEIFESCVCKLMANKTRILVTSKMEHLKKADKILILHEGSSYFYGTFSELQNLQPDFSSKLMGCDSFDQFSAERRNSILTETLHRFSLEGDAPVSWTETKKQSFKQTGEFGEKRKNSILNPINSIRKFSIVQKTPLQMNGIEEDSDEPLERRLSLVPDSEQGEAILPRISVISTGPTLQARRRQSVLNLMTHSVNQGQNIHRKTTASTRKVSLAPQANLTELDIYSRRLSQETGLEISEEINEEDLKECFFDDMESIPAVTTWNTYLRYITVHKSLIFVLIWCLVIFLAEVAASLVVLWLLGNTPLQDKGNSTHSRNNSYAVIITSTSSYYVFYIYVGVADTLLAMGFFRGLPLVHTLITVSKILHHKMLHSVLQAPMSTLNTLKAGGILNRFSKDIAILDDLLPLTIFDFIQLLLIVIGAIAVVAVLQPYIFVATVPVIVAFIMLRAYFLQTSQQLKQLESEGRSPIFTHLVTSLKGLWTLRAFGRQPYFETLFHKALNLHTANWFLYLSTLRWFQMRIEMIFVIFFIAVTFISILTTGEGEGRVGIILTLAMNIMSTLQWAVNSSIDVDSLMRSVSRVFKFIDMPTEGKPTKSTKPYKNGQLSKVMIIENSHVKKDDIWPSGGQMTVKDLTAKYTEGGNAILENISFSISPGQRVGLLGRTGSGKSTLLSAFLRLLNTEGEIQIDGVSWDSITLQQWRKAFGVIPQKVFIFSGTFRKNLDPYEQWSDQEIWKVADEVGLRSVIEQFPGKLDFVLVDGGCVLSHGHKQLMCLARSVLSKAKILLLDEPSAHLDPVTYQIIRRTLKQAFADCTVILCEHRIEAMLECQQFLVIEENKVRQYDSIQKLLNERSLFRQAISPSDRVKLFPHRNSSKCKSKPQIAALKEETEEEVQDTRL

Row | IC50 | Structure (SMILES)
1 | 12.1 µM | COc1ccc(CNc2ncc(-c3cc(Cl)c(O)c(Cl)c3)nn2)cc1 [Compound 132, 2,6-dichloro-4-(3-(4-methoxybenzylamino)-1,2,4-triazin-6-yl)phenol]
2 | 4.56 µM | CC(C)(C)OC(=O)N1CCN(Cc2cc(Cl)ccc2OCc2ncc(-c3cc(Br)c(O)c(Br)c3)nn2)CC1 [Compound 92, tert-butyl 4-(5-chloro-2-((6-(3,5-dibromo-4-hydroxyphenyl)-1,2,4-triazin-3-yl)methoxy)benzyl)piperazine-1-carboxylate]
3 | 5.89 µM | CN(Cc1ccc(COc2ncc(-c3cc(Cl)c(O)c(Cl)c3)nn2)cc1)Cc1cccc(CN2CCOCC2)c1 [Compound 200, 2,6-dichloro-4-(3-(4-((methyl(3-(morpholinomethyl)benzyl)amino)methyl)benzyloxy)-1,2,4-triazin-6-yl)phenol]
4 | 7.47 µM | CN1CCN(CC(NCc2ccc(COc3ncc(-c4cc(Cl)c(O)c(Cl)c4)nn3)cc2)c2ccccc2)CC1 (stereo not shown) [Compound 195, 2,6-dichloro-4-(3-(4-((2-(4-methylpiperazin-1-yl)-1-phenylethylamino)methyl)benzyloxy)-1,2,4-triazin-6-yl)phenol]
5 | 10.3 µM | CC(C)(C)C(=O)N1CCN(Cc2ccc(COc3ncc(-c4cc(Cl)c(O)c(Cl)c4)nn3)cc2)CC1 [Compound 188, 1-(4-(4-((6-(3,5-dichloro-4-hydroxyphenyl)-1,2,4-triazin-3-yloxy)methyl)benzyl)piperazin1-yl)-2,2-dimethylpropan-1-one]
6 | 3.92 µM | Oc1c(Cl)cc(-c2cnc(OCc3ccc(CN4CCc5ccccc5C4c4ccncc4)cc3)nn2)cc1Cl (stereo not shown) [Compound 193]
7 | 6.14 µM | Oc1c(Cl)cc(-c2cnc(NCc3ccc(Cl)cc3)nn2)cc1Cl [Compound 135, 2,6-dichloro-4-(3-(4-chlorobenzylamino)-1,2,4-triazin-6-yl)phenol]
8 | 0.38 µM | Oc1c(Br)cc(-c2cnc(OCc3cc(Cl)cc(Cl)c3)nn2)cc1Br [Compound 26, 2,6-dibromo-4-(3-(3,5-dichlorobenzyloxy)-1,2,4-triazin-6-yl)phenol]
9 | 3.23 µM | Oc1c(Br)cc(-c2cnc(OCc3cnc(Br)s3)nn2)cc1Br [Compound 118, 2,6-dibromo-4-(3-((2-bromothiazol-5-yl)methoxy)-1,2,4-triazin-6-yl)phenol]
10 | 7.54 µM | CN(C)CCCOc1ccc(CN(C)Cc2ccc(COc3ncc(-c4cc(Cl)c(O)c(Cl)c4)nn3)cc2)cc1 [Compound 199, 2,6-dichloro-4-(3-(4-(((4-(3-(dimethylamino)propoxy)benzyl)(methyl)amino)methyl)benzyl-oxy)-1,2,4-triazin-6-yl)phenol]
11 | 2.99 µM | CN(Cc1ccc(COc2ncc(-c3cc(Cl)c(O)c(Cl)c3)nn2)cc1)Cc1ccc(-c2cncnc2)cc1 [Compound 207, 2,6-dichloro-4-(3-(4-((methyl(4-(pyrimidin-5-yl)benzyl)amino)methyl)benzyl-oxy)-1,2,4-triazin-6-yl)phenol]
12 | 2.81 µM | CN(Cc1ccc(COc2ncc(-c3cc(Cl)c(O)c(Cl)c3)nn2)cc1)Cc1cncc(Br)c1 [Compound 170, 4-(3-(4-((((5-bromopyridin-3-yl)methyl)(methyl)amino)methyl)benzyloxy)-1,2,4-triazin-6-yl)-2,6-dichlorophenol]
13 | 18.1 µM | Oc1c(Br)cc(-c2cnc(OCc3ccncc3)nn2)cc1Br [Compound 106, 2,6-dibromo-4-(3-(pyridin-4-ylmethoxy)-1,2,4-triazin-6-yl)phenol]
14 | 7.77 µM | Oc1c(Cl)cc(-c2cnc(OCc3ccc(CNCc4ccc(C(F)(F)F)nc4)cc3)nn2)cc1Cl [Compound 169, 2,6-dichloro-4-(3-(4-(((6-(trifluoromethyl)pyridin-3-yl)methylamino)methyl)benzyl-oxy)-1,2,4-triazin-6-yl)phenol]
15 | 2.96 µM | Oc1c(Cl)cc(-c2cnc(OCc3ccc(CN4Cc5ccccc5C4)cc3)nn2)cc1Cl [Compound 162, 2,6-dichloro-4-(3-(4-(isoindolin-2-ylmethyl)benzyloxy)-1,2,4-triazin-6-yl)phenol]
16 | 3.75 µM | Oc1c(Cl)cc(-c2cnc(OCc3ccc(CN4CCN(c5ccccc5)CC4)cc3)nn2)cc1Cl [Compound 143, 2,6-dichloro-4-(3-(4-((4-phenylpiperazin-1-yl)methyl)benzyloxy)-1,2,4-triazin-6-yl)phenol]
17 | 10.6 µM | Cc1ccc(OCc2ncc(-c3cc(Cl)c(O)c(Cl)c3)nn2)c2c1CCC2 [Compound 41, 2,6-dichloro-4-(3-((7-methyl-2,3-dihydro-1H-inden-4-yloxy)methyl)-1,2,4-triazin-6-yl)phenol]
18 | 5.89 µM | CN(Cc1ccc(COc2ncc(-c3cc(Cl)c(O)c(Cl)c3)nn2)cc1)C(CN1CCOCC1)c1ccccc1 (stereo not shown) [Compound 196, 2,6-dichloro-4-(3-(4-((methyl(2-morpholino-1-phenylethyl)amino)methyl)benzyloxy)-1,2,4-triazin-6-yl)phenol]
19 | 0.17 µM | Oc1c(Br)cc(-c2cnc(OCCc3ccc(Cl)cc3)nn2)cc1Br [Compound 90, 2,6-dibromo-4-(3-(4-chlorophenethoxy)-1,2,4-triazin-6-yl)phenol]
20 | 3.81 µM | Oc1c(Cl)cc(-c2cnc(OCc3ccc(CNCc4cccc(Cl)c4Cl)cc3)nn2)cc1Cl [Compound 141, 2,6-dichloro-4-(3-(4-((2,3 —dichlorobenzylamino)methyl)benzyloxy)-1,2,4-triazin-6-yl)phenol]
21 | 4.31 µM | CN(Cc1ccc(COc2ncc(-c3cc(Cl)c(O)c(Cl)c3)nn2)cc1)Cc1cccc(-c2cccnc2)c1 [Compound 213, 2,6-dichloro-4-(3-(4-((methyl(3-(pyridin-3-yl)benzyl)amino)methyl)benzyl-oxy)-1,2,4-triazin-6-yl)phenol]
22 | 8.04 µM | CN(Cc1ccc(COc2ncc(-c3cc(Cl)c(O)c(Cl)c3)nn2)cc1)Cc1ccc(CN2CCCC2)cc1 [Compound 211, 2,6-dichloro-4-(3-(4-((methyl(4-(pyrrolidin-1-ylmethyl)benzyl)amino)methyl)benzyloxy)-1,2,4-triazin-6-yl)phenol, diformate salt]
23 | 0.7 µM | COc1ccc(Cl)cc1COc1ncc(-c2cc(Br)c(O)c(Br)c2)nn1 [Compound 5, 2,6-dibromo-4-(3-(5-chloro-2-methoxybenzyloxy)-1,2,4-triazin-6-yl)phenol]
24 | 26.8 µM | Cc1ccc(C(C)C)c(OCc2ncc(-c3cc(Br)c(O)c(Br)c3)nn2)c1 [Compound 57, 2,6-dibromo-4-(3-((2-isopropyl-5-methylphenoxy)methyl)-1,2,4-triazin-6-yl)phenol]
25 | 2.33 µM | Oc1c(Br)cc(-c2cnc(OCc3c(Cl)cc(Cl)cc3Cl)nn2)cc1Br [Compound 22, 2,6-dibromo-4-(3-(2,4,6-trichlorobenzyloxy)-1,2,4-triazin-6-yl)phenol]
26 | 6.97 µM | CN(Cc1ccc(COc2ncc(-c3cc(Cl)c(O)c(Cl)c3)nn2)cc1)Cc1cccc(Oc2ccccn2)c1 [Compound 186, 2,6-dichloro-4-(3-(4-((methyl(3-(pyridin-2-yloxy)benzyl)amino)methyl)benzyloxy)-1,2,4-triazin-6-yl)phenol]
27 | 0.26 µM | Oc1c(Br)cc(-c2cnc(OCCc3cccc4ccccc34)nn2)cc1Br [Compound 1, 2,6-dibromo-4-(3-(2-(naphthalen-1-yl)ethoxy)-1,2,4-triazin-6-yl)phenol]

Row | Structure (SMILES) | IC50
28 | Oc1c(Cl)cc(-c2cnc(OCc3ccccc3F)nn2)cc1Cl [Compound 127, 2,6-dichloro-4-(3-(2-fluorobenzyloxy)-1,2,4-triazin-6-yl)phenol] | 5.46 µM

Reference: US20090264433A1, “Compounds, Compositions and Methods Comprising Triazine Derivatives” (Institute for OneWorld Health, priority 2008, published 2009)
